Key:
[1] = tested on: 5HT2A sensor; format: cell-based
[2] = tested on: 5HT2A sensor; format: cell-based; remark: listed apart in the source
[3] = biological target: T1, 5-HT2A (Homo sapiens, UniProt P28223); assay: Serotonin 5-HT2A in vitro cellular IPOne agonism assay; format: cell-based; parameters: host or cells: CHO-K1; conditions: CHO-K1 cells, 60 min
Method: (§1) Serotonin 5-HT2A In Vitro Cellular IPOne Agonism Assay. The 5-HT2A IPOne HTRF assay was performed at Epics Therapeutics S.A. (Belgium, FAST-0505I) using conventional methods. Briefly, CHO-K1 cells expressing human recombinant 5-HT2A receptor grown to mid-log phase in culture media without antibiotics were detached with PBS-EDTA, centrifuged, and resuspended in medium without antibiotics buffer. 20,000 cells are distributed in a 96 well plate and incubated overnight at 37° C. with 5% CO2.
For agonist testing, the medium was removed and 20 μl of assay buffer plus 20 μl of test compound or reference agonist were added in each well. The plate was incubated for 60 min. at 37° C. with 5% CO2.
After addition of the lysis buffer containing IP1-d2 and anti-IP1 cryptate detection reagents, plates were incubated 1-hour at room temperature, and fluorescence ratios were measured according to the manufacturer specification, with the HTRF kit.

[4] = biological target: T1, 5-HT2A; assay: Serotonin 5-HT2A in vitro cellular IPOne antagonism assay; format: cell-based; parameters: host or cells: CHO-K1; conditions: CHO-K1 cells; reference agonist a-Me-5HT
Method: as §1, with “Antagonism” for “Agonism”, “FAST-0505I) in antagonism mode” for “FAST-0505I)”
For antagonist testing, a reference agonist a-Me-5HT was added and fluorescence signal monitored for several minutes, followed by addition of 20 μl of assay buffer plus 20 μl of test compound or reference antagonist ketanserin, in each well. The plate was incubated for 60 min. at 37° C. with 5% CO2.
After addition of the lysis buffer containing IP1-d2 and anti-IP1 cryptate detection reagents, plates were incubated 1-hour at room temperature, and fluorescence ratios are measured according to the manufacturer specification, with the HTRF kit.

[5] = biological target: T1, 5-HT2A; assay: Serotonin 5-HT2A in vitro radioligand binding competition assay; parameters: purchased Epics Therapeutics S.A. (Belgium), contract assay FAST-0505B; host or cells: membrane extracts; conditions: [3H]-DOI radiotracer, membrane extracts, read-out: 5HT2A R[…] ACTIVITY
Method: Serotonin 5-HT2A In Vitro Radioligand Binding Competition Assay. The 5-HT2A radioligand binding competition assay was performed at Epics Therapeutics S.A. (Belgium, FAST-0505B) using conventional methods. Briefly, competition binding was performed in duplicate in the wells of a 96 well plate (Master Block, Greiner, 786201) containing binding buffer (optimized for each receptor), membrane extracts (amount of protein/well optimized for each receptor), radiotracer [^3H]-DOI (final concentration optimized for each receptor) and test compound. Nonspecific binding was determined by co-incubation with 200-fold excess of cold competitor. The samples were incubated in a final volume of 0.1 ml at a temperature and for a duration optimized for each receptor and then filtered over filter plates. Filters were washed six times with 0.5 ml of ice-cold washing buffer (optimized for each receptor) and 50 μl of Microscint 20 (Packard) were added in each well. The plates were incubated 15 min on an orbital shaker and then counted with a TopCount™ for 1 min/well.

T1 sequence (P28223 whole entry): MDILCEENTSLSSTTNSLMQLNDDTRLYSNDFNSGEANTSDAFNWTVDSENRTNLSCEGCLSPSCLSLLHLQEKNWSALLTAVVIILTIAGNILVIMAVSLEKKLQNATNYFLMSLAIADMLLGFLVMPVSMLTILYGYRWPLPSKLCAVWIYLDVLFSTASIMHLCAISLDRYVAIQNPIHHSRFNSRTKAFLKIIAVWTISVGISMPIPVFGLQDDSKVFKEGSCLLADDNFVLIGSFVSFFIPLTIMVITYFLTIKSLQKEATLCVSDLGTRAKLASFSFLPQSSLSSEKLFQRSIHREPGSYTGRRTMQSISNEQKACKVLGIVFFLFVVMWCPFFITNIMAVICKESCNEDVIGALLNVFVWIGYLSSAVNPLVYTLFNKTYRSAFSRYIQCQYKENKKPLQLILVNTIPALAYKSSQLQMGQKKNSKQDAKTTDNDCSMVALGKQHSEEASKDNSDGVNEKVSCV

Molecule	IC50 [4]	EC50 ([3]; benzothiophenes)	IC50 ([5]; benzothiophenes)	further results
CCN(CC)C(=O)[C@@H]1C=C2c3cccc4[nH]c(Br)c(c34)C[C@H]2N(C)C1 [BOL148]	–	–	–	activation of the 5HT2A sensor assay [1]: do not activate the 5HT2A sensor assay in agonist mode; competition with 5-HT at 5HT2A in the sensor assay [2]: can compete with 5HT binding to 5HT2A
CCN(CC)CCc1c[nH]c2cc(F)ccc12 [Compound 6-F-DET, 6-F-DET]	–	–	–	activation of the 5HT2A sensor assay [1]: do not activate the 5HT2A sensor assay in agonist mode; competition with 5-HT at 5HT2A in the sensor assay [2]: can compete with 5HT binding to 5HT2A
COc1cccc2oc3c(c12)CN(C1CCC1)CCC3 [Compound 14, 2-cyclobutyl-10-methoxy-2,3,4,5-tetrahydro-1H-benzofuro[3,2-c]azepine]	101 to 1000 nM	–	–	EC50 ([3]; benzofurans): 1000 to 10000 nM; IC50 ([5]; benzofurans): 1000 to 10000 nM
CN1CCc2oc3cc(F)ccc3c2CC1 [Compound 23, 8-fluoro-3-methyl-2,3,4,5-tetrahydro-1H-benzofuro[2,3-d]azepine]	101 to 1000 nM	–	–	EC50 ([3]; benzofurans): 101 to 1000 nM; IC50 ([5]; benzofurans): 101 to 1000 nM
c1ccc2c3c(oc2c1)CCN(C1CCC1)CC3 [Compound 28, 3-cyclobutyl-2,3,4,5-tetrahydro-1H-benzofuro[2,3-d]azepine]	> 10000 nM	–	–	EC50 ([3]; benzofurans): > 10000 nM; IC50 ([5]; benzofurans): 1000 to 10000 nM
CN1CCc2oc3ccccc3c2CC1 [Compound 30, 3-methyl-2,3,4,5-tetrahydro-1H-benzofuro[2,3-d]azepine]	101 to 1000 nM	–	–	EC50 ([3]; benzofurans): > 10000 nM; IC50 ([5]; benzofurans): 101 to 1000 nM
Fc1ccc2c3c(sc2c1)CCN(C1CCC1)CC3 [Compound 32, 3-cyclobutyl-8-fluoro-2,3,4,5-tetrahydro-1H-benzo[4,5]thieno[2,3-d]azepine]	10 to 100 nM	> 10000 nM	10 to 100 nM	–
CN1CCc2sc3cc(F)ccc3c2CC1 [Compound 33, 8-fluoro-3-methyl-2,3,4,5-tetrahydro-1H-benzo[4,5]thieno[2,3-d]azepine]	10 to 100 nM	10 to 100 nM	10 to 100 nM	–
COc1ccc2c3c(sc2c1)CCN(C)CC3 [Compound 34, 8-methoxy-3-methyl-2,3,4,5-tetrahydro-1H-benzo[4,5]thieno[2,3-d]azepine]	101 to 1000 nM	1000 to 10000 nM	1000 to 10000 nM	–
c1ccc(COc2cccc3oc4c(c23)CCNCC4)cc1 [Compound 47, 10-(benzyloxy)-2,3,4,5-tetrahydro-1H-benzofuro[2,3-d]azepine]	101 to 1000 nM	–	–	EC50 ([3]; benzofurans): 1000 to 10000 nM; IC50 ([5]; benzofurans): 101 to 1000 nM
CN1CCCc2oc3cc(OC(F)(F)F)ccc3c2C1 [Compound 53, 2-methyl-8-(trifluoromethoxy)-2,3,4,5-tetrahydro-1H-benzofuro[3,2-c]azepine]	–	–	–	EC50 ([3]; benzofurans): > 10000 nM; IC50 ([5]; benzofurans): > 10000 nM
CN1CCCc2oc3cc(OCc4ccccc4)ccc3c2C1 [Compound 54, 8-(benzyloxy)-2-methyl-2,3,4,5-tetrahydro-1H-benzofuro[3,2-c]azepine]	–	–	–	EC50 ([3]; benzofurans): > 10000 nM; IC50 ([5]; benzofurans): 101 to 1000 nM
CN1CCCc2oc3cccc(OCc4ccccc4)c3c2C1 [Compound 55, 10-(benzyloxy)-2-methyl-2,3,4,5-tetrahydro-1H-benzofuro[3,2-c]azepine]	–	–	–	EC50 ([3]; benzofurans): > 10000 nM; IC50 ([5]; benzofurans): 10 to 100 nM
c1ccc2c3c(sc2c1)CCNCC3 [Compound 65, 2,3,4,5-tetrahydro-1H-benzo[4,5]thieno[2,3-d]azepine]	–	101 to 1000 nM	10 to 100 nM	–
FC(F)(F)Oc1ccc2c3c(sc2c1)CCNCC3 [Compound 66, 8-(trifluoromethoxy)-2,3,4,5-tetrahydro-1H-benzo[4,5]thieno[2,3-d]azepine]	–	101 to 1000 nM	101 to 1000 nM	–
FC(F)(F)Oc1cccc2sc3c(c12)CCNCC3 [Compound 67, 10-(trifluoromethoxy)-2,3,4,5-tetrahydro-1H-benzo[4,5]thieno[2,3-d]azepine]	–	10 to 100 nM	10 to 100 nM	–
FC(F)(F)Oc1cccc2sc3c(c12)CCN(C1CCC1)CC3 [Compound 68, 3-cyclobutyl-10-(trifluoromethoxy)-2,3,4,5-tetrahydro-1H-benzo[4,5]thieno[2,3-d]azepine]	–	1000 to 10000 nM	1000 to 10000 nM	–

Molecule	IC50 [4]	EC50 ([3]; benzothiophenes)	IC50 ([5]; benzothiophenes)	further results
FC(F)(F)CN1CCc2sc3ccccc3c2CC1 [Compound 69, 3-(2,2,2-trifluoroethyl)-2,3,4,5-tetrahydro-1H-benzo[4,5]thieno[2,3-d]azepine]	–	> 10000 nM	> 10000 nM	–
COc1ccc2c3c(sc2c1)CCN(CC(F)(F)F)CC3 [Compound 70, 8-methoxy-3-(2,2,2-trifluoroethyl)-2,3,4,5-tetrahydro-1H-benzo[4,5]thieno[2,3-d]azepine]	–	> 10000 nM	> 10000 nM	–
Fc1ccc2c3c(sc2c1)CCN(CC(F)(F)F)CC3 [Compound 71, 8-fluoro-3-(2,2,2-trifluoroethyl)-2,3,4,5-tetrahydro-1H-benzo[4,5]thieno[2,3-d]azepine]	–	> 10000 nM	> 10000 nM	–
CN1CCc2sc3ccccc3c2CC1 [Compound 72, 3-methyl-2,3,4,5-tetrahydro-1H-benzo[4,5]thieno[2,3-d]azepine]	10 to 100 nM	101 to 1000 nM	10 to 100 nM	–
c1ccc2c3c(sc2c1)CCN(C1CCC1)CC3 [Compound 73, 3-cyclobutyl-2,3,4,5-tetrahydro-1H-benzo[4,5]thieno[2,3-d]azepine]	101 to 1000 nM	> 10000 nM	101 to 1000 nM	–
COc1ccc2c3c(sc2c1)CCN(C1CCC1)CC3 [Compound 74, 3-cyclobutyl-8-methoxy-2,3,4,5-tetrahydro-1H-benzo[4,5]thieno[2,3-d]azepine]	–	> 10000 nM	> 10000 nM	–
CN1CCc2sc3cc(OC(F)(F)F)ccc3c2CC1 [Compound 75, 3-methyl-8-(trifluoromethoxy)-2,3,4,5-tetrahydro-1H-benzo[4,5]thieno[2,3-d]azepine]	101 to 1000 nM	> 10000 nM	1000 to 10000 nM	–
FC(F)(F)Oc1ccc2c3c(sc2c1)CCN(C1CCC1)CC3 [Compound 76, 3-cyclobutyl-8-(trifluoromethoxy)-2,3,4,5-tetrahydro-1H-benzo[4,5]thieno[2,3-d]azepine]	–	> 10000 nM	1000 to 10000 nM	–
c1ccc(COc2ccc3c4c(sc3c2)CCNCC4)cc1 [Compound 77, 8-(benzyloxy)-2,3,4,5-tetrahydro-1H-benzo[4,5]thieno[2,3-d]azepine]	–	> 10000 nM	1000 to 10000 nM	–
c1ccc(COc2ccc3c4c(sc3c2)CCN(C2CCC2)CC4)cc1 [Compound 78, 8-(benzyloxy)-3-cyclobutyl-2,3,4,5-tetrahydro-1H-benzo[4,5]thieno[2,3-d]azepine]	–	> 10000 nM	1000 to 10000 nM	–
CN1CCc2sc3cc(OCc4ccccc4)ccc3c2CC1 [Compound 79, 8-(benzyloxy)-3-methyl-2,3,4,5-tetrahydro-1H-benzo[4,5]thieno[2,3-d]azepine]	–	> 10000 nM	101 to 1000 nM	–
Oc1ccc2c3c(sc2c1)CCNCC3 [Compound 80, 2,3,4,5-tetrahydro-1H-benzo[4,5]thieno[2,3-d]azepin-8-ol]	–	101 to 1000 nM	10 to 100 nM	–
CN(C)CCc1c[nH]c2ccccc12 [DMT, N,N-dimethyltryptamine]	–	–	–	activation of the 5HT2A sensor assay [1]: activate the 5HT2A sensor assay in agonist mode
CCN(CC)C(=O)[C@@H]1C=C2c3cccc4[nH]cc(c34)C[C@H]2N(C)C1 [LSD]	–	–	–	activation of the 5HT2A sensor assay [1]: activate the 5HT2A sensor assay in agonist mode
DOI	–	–	–	activation of the 5HT2A sensor assay [1]: activate the 5HT2A sensor assay in agonist mode
L-MDMA	–	–	–	activation of the 5HT2A sensor assay [1]: do not activate the 5HT2A sensor assay in agonist mode
R-MDMA	–	–	–	activation of the 5HT2A sensor assay [1]: do not activate the 5HT2A sensor assay in agonist mode

From patent US20250051346A1 (priority 2021, published 2025)
